Entries after “also recorded” stand apart in the source; their conditions may differ. Residues, ends and D or L forms follow the SMILES beside them. *: point of attachment. Cbz = O=C(OCc1ccccc1)*; CHN2 = [N-]=[N+]=C*; CH2F = FC*
Experiments:
cathepsin L [1] = molecular target: T1, cathepsin L (Homo sapiens, UniProt P07711); experiment: Intracellular cathepsin L assay, wild type preprocathepsin L-GFP in HeLa-rtTA cells, 96-well plate reader; type: cell-based; settings: 48 h; for Effect on overall level of GFP fluorescence: 0-60 μM
T1 construct: The C-terminus of the full length human preprocathepsin L is fused in frame to the N-terminus of GFP; GFP (Aequorea victoria, F64L/S65C/I167T/K238N) via BglII-NheI linker (C); expressed in transfected cells
T1 sequence (P07711 18-333 limits assumed): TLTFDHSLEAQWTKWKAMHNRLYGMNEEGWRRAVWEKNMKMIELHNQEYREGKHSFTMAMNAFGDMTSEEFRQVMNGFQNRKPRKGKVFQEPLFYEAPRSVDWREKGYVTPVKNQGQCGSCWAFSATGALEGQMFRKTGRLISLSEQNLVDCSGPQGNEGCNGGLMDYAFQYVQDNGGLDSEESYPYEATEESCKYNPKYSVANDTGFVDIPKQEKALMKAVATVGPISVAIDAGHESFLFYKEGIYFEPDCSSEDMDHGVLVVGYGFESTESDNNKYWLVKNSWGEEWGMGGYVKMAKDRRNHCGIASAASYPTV
Protocol: (§1) Adaptation of the assay to a 96-well plate format—The intracellular assay was performed in a 96-well microplate format using a plate reader to monitor GFP fluorescence. Three different inhibitors were used for the plate assay: Cbz-LeuLeuTyr-CHN2, Cbz-LeuLeuTyr-CH2F and E-64. These compounds are all irreversible inhibitors of cysteine proteases. Prior to measuring the fluorescence, the stably transfected pools of HeLa-rtTA cells were induced with doxycycline and cultured in presence of various concentrations of the inhibitors for 48 h.
(§2) FIG. 15 Adaptation of the intracellular assay to a high-throughput screening format. The assay was carried out in a 96-well microplate and fluorescence was measured using the Cytofluor. The expression of GFP fusion proteins was induced for 48 h in the presence of several inhibitors. Cell viability was determined using the MTT dye reduction assay. The average of triplicate values and the standard deviation for fluorescence and cell viability were expressed as a function of inhibitor concentration. Panel A. Relative fluorescence (fold/control) of cells expressing the wild-type preprocathepsin L-GFP fusion protein treated with various inhibitors. Panel B. The relative fluorescence of cells expressing the mutant preprocathepsin L-GFP (C25A) fusion protein in response to treatment with several inhibitors. Panel C. Percentage of viable cells expressing the wild type fusion protein after treatment with inhibitors. […]
Proteolytic Assays—For in vitro assays, purified GFP-His protein (100 μg) was incubated with 400 nM cathepsin L for 4.5 h. Aliquots were analyzed periodically to monitor the fluorescence using a CytoFluor plate reader (PerSeptive Biosystems, Framingham, Mass.) with cut-off filters of 488 nm (excitation) and […] (emission). […] For cell-based assays, stably transfected HeLa cells (stable pools) of either wild type cathepsin L-GFP or mutant cathepsin L-GFP fusions were grown in presence or absence of cathepsin inhibitors, and GFP fluorescence was monitored with various detection methods. […] Cells from one set of plates were harvested by trypsinization, resuspended in PBS, and GFP fluorescence was subsequently determined with flow cytometry. […] The cells were grown for an additional 24 h and GFP fluorescence was measured as described above. For detection with the CytoFluor plate reader, cells (400,000 cells/ml) in a total volume of 250 μl per well, were cultured in 96-well microplates. […] After the removal of medium, 200 μl of PBS was added to each well and the plates were scanned to monitor GFP fluorescence. Background fluorescence was determined from negative control cells (-doxycycline), and was subtracted from the fluorescence values obtained from induced cells that were cultured with various concentrations of inhibitors.

HeLa-rtTA cells = experiment: Cell viability, MTT dye reduction assay; type: cell-based; settings: 48 h; for Effect on cell viability: 0-60 μM, wild type and mutant fusion cells; for Cell viability: 60 μM
Protocol: FIG. 15 Adaptation of the intracellular assay to a high-throughput screening format. The assay was carried out in a 96-well microplate and fluorescence was measured using the Cytofluor. The expression of GFP fusion proteins was induced for 48 h in the presence of several inhibitors. Cell viability was determined using the MTT dye reduction assay. The average of triplicate values and the standard deviation for fluorescence and cell viability were expressed as a function of inhibitor concentration. Panel A. Relative fluorescence (fold/control) of cells expressing the wild-type preprocathepsin L-GFP fusion protein treated with various inhibitors. Panel B. The relative fluorescence of cells expressing the mutant preprocathepsin L-GFP (C25A) fusion protein in response to treatment with several inhibitors. Panel C. Percentage of viable cells expressing the wild type fusion protein after treatment with inhibitors. Panel D. The percentage of viable cells expressing the mutant fusion protein as described in Panel C.
Cell Viability Assay—The number of viable cells was evaluated by the MTT dye reduction assay with modification (24). In the presence of various concentrations of inhibitors, cells were grown in 96-well plates for 48 h. MTT reagent was then added to a final concentration of 0.5 mg/ml, and incubation at 37° C. in 5% CO2 was continued for 4 h. The resulting insoluble formazan crystals were solubilized by resuspending the cells in 100 μl of DMSO per well. Absorbance of converted dye was measured at 550/690 nm on SpectraMAX 250 (Molecular Devices). Assay values obtained from control cells were taken as 100%.

cathepsin L [2] = molecular target: T1, cathepsin L; experiment: Intracellular cathepsin L assay, wild type preprocathepsin L-GFP in HeLa-rtTA cells, FACS; type: cell-based; settings: 48 h
Protocol: (§3) A potent cathepsin L irreversible inhibitor, Cbz-LeuLeuTyr-CHN2, was also used in this experiment. To induce cathepsin L-GFP expression, the cells were cultured in the presence of doxycycline for 48 h. […] Fluorescence that corresponds to GFP, however, is found in the peaks at higher fluorescence levels (FIGS. 13B,C). This can be observed in all cell populations expressing GFP. […] In the absence of inhibitor, the active enzyme hydrolyzes most of the GFP substrate, resulting in low fluorescence levels. […] It must be noted also that the low level of cellular fluorescence increases slightly in presence of the inhibitor, possibly due to effects on cellular events.
(§4) FIG. 13 Characterization of GFP fluorescence by FACS analysis. Expression of GFP fusion proteins was induced in the presence or absence of Z-Leu-Leu-Tyr-CHN2 inhibitor for 48 h, and the fluorescence was measured by FACS . Panel A. The fluorescence histograms of non-30 transfected HeLa-rtTA cells, cultured in absence (shaded) or in presence of 35 μM inhibitor (superimposed). A shift of the superimposed histogram depicts an increase of the background fluorescence in response to the inhibitor (see text for more details). Panel B. The fluorescence histograms of cells expressing the mutant preprocathepsin L-GFP (C25A) fusion protein, grown in absence (shaded) and in presence (superimposed) of 35 μM inhibitor. Panel C. […]

[3] = molecular target: T2, non-active preprocathepsin L (C25A) mutant (Homo sapiens, UniProt P07711, C138A); experiment: Control, mutant preprocathepsin L-GFP (C25A) in HeLa-rtTA cells, FACS; type: cell-based; settings: inactive cathepsin L (C25A), up to 35 μM inhibitor, 48 h
T2 construct: The C-terminus of the full length human preprocathepsin L is fused in frame to the N-terminus of GFP; GFP (Aequorea victoria, F64L/S65C/I167T/K238N) via BglII-NheI linker (C); expressed in transfected cells
T2 sequence (P07711 114-333 C138A): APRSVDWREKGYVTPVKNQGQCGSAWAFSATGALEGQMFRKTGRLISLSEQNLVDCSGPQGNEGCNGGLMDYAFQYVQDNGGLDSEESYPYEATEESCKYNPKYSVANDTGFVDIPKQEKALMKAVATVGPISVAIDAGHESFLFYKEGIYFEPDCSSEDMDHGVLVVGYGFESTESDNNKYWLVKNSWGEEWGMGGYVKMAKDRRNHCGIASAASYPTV
Protocol: as §3, §4

[4] = molecular target: T2, non-active preprocathepsin L (C25A) mutant; experiment: Control, mutant preprocathepsin L-GFP (C25A) in HeLa-rtTA cells, 96-well plate reader; type: cell-based; settings: 0-60 μM, 48 h
Protocol: as §1
as §2, with “C.” for “C. Percentage of viable cells expressing the wild type fusion protein after treatment with inhibitors.”

caspase 8 = molecular target: T3, caspase 8 (Homo sapiens, UniProt Q14790); experiment: Cell-based assay for caspase 8 in Jurkat cells (GFP double mutant, anti-Fas Ab, guanidine-HCl)
T3 construct: endogenous in cells; host or cells: Jurkat-rtTA cells
T3 sequence (Q14790 217-374 limits assumed): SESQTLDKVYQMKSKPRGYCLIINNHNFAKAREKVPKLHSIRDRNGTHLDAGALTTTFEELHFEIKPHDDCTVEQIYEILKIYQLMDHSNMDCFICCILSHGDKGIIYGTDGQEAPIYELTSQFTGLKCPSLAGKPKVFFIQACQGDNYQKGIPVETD
T3 sequence (Q14790 385-479 limits assumed): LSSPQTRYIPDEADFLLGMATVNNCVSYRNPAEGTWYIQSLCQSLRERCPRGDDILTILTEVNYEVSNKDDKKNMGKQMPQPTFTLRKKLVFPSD
Description: Two factors are particularly important for the successful conversion of GFP into a preferred protease substrate: (i) the cleavage of the accessible substrate recognition sequence and (ii) the susceptibility of the cleaved GFP relative to the intact (non-cleaved) GFP towards unfolding. In the present work, it was preferred to introduce two cleavage sites in order to sufficiently destabilize GFP so that rapid unfolding could be observed at pH 5.5 in vitro. This is represented by a Scheme in FIG. 6. FIG. 6 is a graphical depiction of fluorescence as a function of the duration of exposure to guanidine-HCl. The assay was performed in Jurkat cells, using an anti-Fas Ab for caspase 8 activation. The assay is run in a 96-well plate format, using the Cytofluor plate reader. […] Without addition of Guanidine-HCl, no change in fluorescence was observed. However, a functional cellular assay (i.e. with a fluorescence readout) was obtained by incubating the cells with the denaturing agent Guanidine-HCl prior to analysis.
Without addition of Guanidine-HCl, no change in fluorescence is observed. However, a functional cellular assay (i.e. with a fluorescence readout) was obtained by incubating the cells with the denaturing agent Guanidine-HCl prior to analysis (FIG. 6).
The assay was performed in Jurkat cells and the GFP substrate was delivered by means of transient transfection. […]

Structure (SMILES) | Effect on overall level of GFP fluorescence (cathepsin L [1]) | Effect on cell viability (HeLa-rtTA cells) | Cell viability (HeLa-rtTA cells) | Fluorescence increase relative to control cells without inhibitor (cathepsin L [1]; 60 μM) [fold] | GFP fluorescence (cathepsin L [2]; 35 μM inhibitor, doxycycline) | Increase of fluorescence (fluorescence index) (cathepsin L [2]; inhibitor concentration increased from 0 to 35 μM) | GFP fluorescence [3] | Fluorescence of cells expressing mutant non-active fusion protein [4] | Response of fluorescence with inhibitor concentration (caspase 8; Fas-dependent hydrolysis of GFP, guanidine-HCl before reading) | Hydrolysis of GFP mutant in response to Fas-induced apoptosis (caspase 8; Jurkat-rtTA cells, Western with polyclonal anti-GFP Ab)
CC(C)C[C@H](NC(=O)[C@H]1O[C@@H]1C(=O)O)C(=O)NCCCCN=C(N)N (relative stereo) [E-64, N-[N-(L-3-trans-carboxyoxirane-2-carbonyl)-L-leucyl]amino-4-guanidinobutane] | no significant effect | Almost no effect |  |  |  |  |  |  |  | 
CC(C)C[C@H](NC(=O)OCc1ccccc1)C(=O)N[C@@H](CC(C)C)C(=O)N[C@@H](Cc1ccc(O)cc1)C(=O)CF [Cbz-LeuLeuTyr-CH2F] (Cbz-Leu-Leu-Tyr-CH2F) | no significant effect | inversely proportional to the inhibitor concentration | approximately 50% |  |  |  |  |  |  | 
CC(C)C[C@H](NC(=O)OCc1ccccc1)C(=O)N[C@@H](CC(C)C)C(=O)N[C@@H](Cc1ccc(O)cc1)C(=O)C=[N+]=[N-] [Cbz-LeuLeuTyr-CHN2] (Cbz-Leu-Leu-Tyr-CHN2) | dose-dependent increase | inversely proportional to the inhibitor concentration | approximately 50% | 20 | significant increase | up to 5 fold | virtually no change; also recorded: remained unchanged | small increase |  | 
COC(=O)C[C@H](NC(=O)[C@H](C)NC(=O)[C@@H](NC(=O)OCc1ccccc1)C(C)C)C(=O)CF [Z-VAD-FMK] (Cbz-Val-Ala-Asp(OMe)-CH2F) |  |  |  |  |  |  |  |  | dose-dependent response | inhibited

— patent US20040042961A1, “Development of an in vivo functional assay for proteases” (priority 2002, published 2004)
